Where a name gives a salt, the structure may show the parent alone.
System: Demodex
Experiment: Acaricidal experiment: Demodex culture in vitro, survival time of mites
Conditions: adult Demodex, 20° C., 96% humidity
Description: This study strictly followed the ethical principles of the Declaration of Helsinki, and Ethical Guidelines for Biomedical Research Involving Human Subjects. In this study, Demodex was collected from patients diagnosed with ocular Demodex infection. Those meeting the inclusion criteria would be enrolled after an informed conversation and signing an informed consent form.
Demodex detection was performed according to the conventional eyelash microscopic examination method. 3 eyelashes were extracted from each eyelid, and a total of 12 eyelashes were extracted. The extracted eyelashes were immediately placed on a glass slide, and one piece of each three eyelashes was placed under an ordinary light microscope for observation. Demodex at all stages were counted and classified according to morphology (specific criteria were: Demodex brevis at a head-to-body ratio of 1:1 and Demodex folliculorum at a head-to-body ratio of 1:3 to 1:4). Only adults that were fully exposed to the field of view were taken as subjects (larvae and eggs were not considered as subjects since they were more fragile in early life).
Based on the above detection of Demodex, 50 μl of different solutions were added to each slide, and the survival of the worms was observed every 1 hour. The death was judged by observing whether the worms were active (body, limbs, or the like) under a microscope. Two skilled Demodex-related experimenters observed and judged separately during the experiment. If the judgment results were different, the third skilled experimenter was asked to make an independent judgment. The culture in vitro was performed in a climate chamber at 20° C. and 96% humidity. Slides were transported in a humid chamber under observation and the solution was added appropriately to ensure high humidity before vacuoles appeared on solution evaporation.

N[C@H]1C[C@@H]1c1ccccc1 [Hydrochloride salt of V-C]
Average survival time of mites (concentration 1 mg/mL in 0.9% NaCl solution): 7.44 ± 6.07 h | Average survival time of mites (concentration 3 mg/mL in 0.9% NaCl solution): 5.66 ± 0.91 h | Average survival time of mites (concentration 10 mg/mL in 0.9% NaCl solution): 2.89 ± 1.08 h | Average survival time of mites (concentration 30 mg/mL in 0.9% NaCl solution): 2.24 ± 1.32 h

— patent US20240293370A1, “USE OF COMPOUNDS IN INHIBITING OR KILLING MITES AND TREATING XEROPHTHALMIA” (Precvision Biotechnologies LTD., priority 2021, published 2024)
